Source: US8846666B2, “Oxathiazine derivatives which are substituted with benzyl or heteromethylene groups, method for producing them, their use as medicine and drug containing said derivatives and the use thereof” (Sanofi, priority 2011, dated 2014)

Target: human 11β-HSD1 microsome fraction (Homo sapiens, UniProt P28845)
Test: Enzymatic 11Beta-HSD1 test (SPA-based detection)
Assay type: biochemical
Details: [1,2-3H]-cortisone, NADPH, 37° C. for 1 hour
Protocol: Enzymatic 11Beta-HSD1 Test:
To measure the activity of the compounds, an SPA-based detection method (Solly et al. 2005) was employed. First of all, 20 μl of the human 11β-HSD1 microsome fraction (0.2 μg of protein), prepared in 50 mM HEPES, 0.1% BSA (w/v), were applied to a plate with 384 wells. The test compounds (0.09 μl) were applied to the assay plate in 100% DMSO. The reaction was started by addition of 20 μl of [1,2-^3H]-cortisone (0.1 μCi/[…]) in assay buffer comprising 25 mM HEPES, 100 mM KCl, 5 mM NaCl, 2 mM MgCl2 and 0.25 mM NADPH. The plate was agitated at 37° C. for 1 hour. At the same time, a stop solution comprising 20 mg/ml SPA-PVT beads, 1.6 mg/ml monoclonal cortisol antibody and 0.01 mM SSR110887 (inhibitor from the Biovitrium patent) in 50 mM HEPES, 1 M NaCl and 1 M KCl was stirred at room temperature. To stop the reaction, 25 μl of the stop solution were added to each well. The plate was agitated gently at room temperature for 1 further hour and then centrifuged at 500 gav for 1 min, in order that the SPA beads could settle out. The plate was then read in a Wallac-1450-Microbeta unit with a standard SPA program (counting time 1 min/well). The comparative compound was glycyrrhetinic acid.
Protein and radioactive substrate were dispensed with a Biomek FX unit (Beckman Coulter) for handling liquids. The test compounds were added with a Cybi-Well equipped with a 90 nl pin tool (CyBio).
Lit.: Solly S, Mundt S S, Zokian H J, Juy-Fang Ding G, Hermanowski-Vosatka A, Strulovici B and Zheng W. High-throughput screening of 11β-Hydroxysteroid dehydrogenase type 1 in scintillation proximity format. Assay Drug Dev Technol 2005; 3:377-384.

Sequence of human 11β-HSD1 microsome fraction (P28845 whole entry): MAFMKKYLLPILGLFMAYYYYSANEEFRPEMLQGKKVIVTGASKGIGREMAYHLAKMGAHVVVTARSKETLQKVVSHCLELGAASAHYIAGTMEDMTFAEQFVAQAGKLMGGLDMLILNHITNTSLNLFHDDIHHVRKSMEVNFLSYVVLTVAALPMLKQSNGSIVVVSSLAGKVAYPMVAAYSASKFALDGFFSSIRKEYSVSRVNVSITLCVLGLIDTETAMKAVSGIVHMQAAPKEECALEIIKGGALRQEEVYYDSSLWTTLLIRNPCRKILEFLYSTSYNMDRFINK

IC50 [nM] | Structure (SMILES)
29 | CC1(C)OC(N[C@@H](CCO)c2ccccc2F)=NS(=O)(=O)C1Cc1ccc(C2CCN(CC3CC3)CC2)cc1 (stereo partly drawn) [Example 30, (S)-3-{5-[4-(1-Cyclopropylmethyl-piperidin-4-yl)-benzyl]-6,6-dimethyl-4,4-dioxo-5,6-dihydro-4H-4lambda6-[1,4,3]oxathiazin-2-ylamino}-3-(2-fluoro-phenyl)-propan-1-ol]
17 | CC1(C)OC(N[C@@H](CCO)c2ccccc2F)=NS(=O)(=O)C1Cc1ccc(CCCN2CCOCC2)cc1 (stereo partly shown) [Example 31]
32 | CN(C)CCCc1ccc(CC2C(C)(C)OC(N[C@@H](CCO)c3ccccc3F)=NS2(=O)=O)cc1 (stereo partly drawn) [Example 32, (S)-3-{5-[4-(3-Dimethylamino-propyl)-benzyl]-6,6-dimethyl-4,4-dioxo-5,6-dihydro-4H-4lambda6-[1,4,3]oxathiazin-2-ylamino}-3-(2-fluorophenyl)-propan-1-ol]
30 | CNCCCc1ccc(CC2C(C)(C)OC(N[C@@H](CCO)c3ccccc3F)=NS2(=O)=O)cc1 (stereo partly drawn) [Example 33, (S)-3-{6,6-Dimethyl-5-[4-(3-methylamino-propyl)-benzyl]-4,4-dioxo-5,6-dihydro-4H-4lambda6-[1,4,3]oxathiazin-2-ylamino}-3-(2-fluorophenyl)-propan-1-ol]
8 | CC1(C)OC(N[C@@H](CCO)c2ccccc2F)=NS(=O)(=O)[C@@H]1Cc1ccc(C2CCNCC2)cc1 [Example 34, (S)-3-[(R)-6,6-Dimethyl-4,4-dioxo-5-(4-piperidin-4-yl-benzyl)-5,6-dihydro-4H-4lambda6-[1,4,3]oxathiazin-2-ylamino]-3-(2-fluorophenyl)-propan-1-ol]
11 | CC1(C)OC(N[C@@H](CCO)c2ccccc2F)=NS(=O)(=O)[C@H]1Cc1ccc(C2CCNCC2)cc1 [Example 35, (S)-3-[(S)-6,6-Dimethyl-4,4-dioxo-5-(4-piperidin-4-yl-benzyl)-5,6-dihydro-4H-4lambda6-[1,4,3]oxathiazin-2-ylamino]-3-(2-fluorophenyl)-propan-1-ol]
38 | CN(CCO)CCCc1ccc(CC2C(C)(C)OC(N[C@@H](CCO)c3ccccc3F)=NS2(=O)=O)cc1 (stereo partly shown) [Example 36]
37 | C[C@H](NC1=NS(=O)(=O)C(Cc2ccc(C3CCN(CCO)CC3)cc2)C(C)(C)O1)c1ccccc1F (stereo partly drawn) [Example 37, 2-[4-(4-{2-[(S)-1-(2-fluorophenyl)-ethylamino]-6,6-dimethyl-4,4-dioxo-5,6-dihydro-4H-4lambda6-[1,4,3]oxathiazin-5-ylmethyl}-phenyl)-piperidin-1-yl]-ethanol]
7 | C[C@H](NC1=NS(=O)(=O)C(Cc2ccc(C3CCNCC3)cc2)C(C)(C)O1)c1ccccc1F (stereo partly drawn) [Example 38, [6,6-Dimethyl-4,4-dioxo-5-(4-piperidin-4-yl-benzyl)-5,6-dihydro-4H-4lambda6-[1,4,3]oxathiazin-2-yl]-[(S)-1-(2-fluorophenyl)-ethyl]-amine]
17 | C[C@H](NC1=NS(=O)(=O)C(Cc2ccc(N3CCN(C(C)(C)C)CC3)cc2)C(C)(C)O1)c1ccccc1F (stereo partly drawn) [Example 39, {5-[4-(4-tert-Butyl-piperazin-1-yl)-benzyl]-6,6-dimethyl-4,4-dioxo-5,6-dihydro-4H-4lambda6-[1,4,3]oxathiazin-2-yl}-[(S)-1-(2-fluorophenyl)-ethyl]-amine]
25 | COCCN1CCC(c2ccc(CC3C(C)(C)OC(N[C@@H](C)c4ccccc4F)=NS3(=O)=O)cc2)CC1 (stereo partly drawn) [Example 40, [(S)-1-(2-fluorophenyl)-ethyl]-(5-{4-[1-(2-methoxy-ethyl)-piperidin-4-yl]-benzyl}-6,6-dimethyl-4,4-dioxo-5,6-dihydro-4H-4lambda6-[1,4,3]oxathiazin-2-yl)-amine]
32 | CC1(C)OC(N[C@@H](CCO)c2ccccc2F)=NS(=O)(=O)[C@@H]1Cc1ccc(C2CCN(C3CC3)CC2)cc1 [Example 41, (S)-3-{(R)-5-[4-(1-Cyclopropyl-piperidin-4-yl)-benzyl]-6,6-dimethyl-4,4-dioxo-5,6-dihydro-4H-4lambda6-[1,4,3]oxathiazin-2-ylamino}-3-(2-fluoro-phenyl)-propan-1-ol]
5 | CC1(C)OC(N[C@@H](CCO)c2ccccc2F)=NS(=O)(=O)[C@H]1Cc1ccc(C2CCN(C3CC3)CC2)cc1 [Example 42, (S)-3-{(S)-5-[4-(1-Cyclopropyl-piperidin-4-yl)-benzyl]-6,6-dimethyl-4,4-dioxo-5,6-dihydro-4H-4lambda6-[1,4,3]oxathiazin-2-ylamino}-3-(2-fluoro-phenyl)-propan-1-ol]
11 | C[C@H](NC1=NS(=O)(=O)C(Cc2ccc(C3CCN(C4CC4)CC3)cc2)C(C)(C)O1)c1ccccc1F (stereo partly drawn) [Example 43, {5-[4-(1-Cyclopropyl-piperidin-4-yl)-benzyl]-6,6-dimethyl-4,4-dioxo-5,6-dihydro-4H-4lambda6-[1,4,3]oxathiazin-2-yl}-[(S)-1-(2-fluorophenyl)-ethyl]-amine]
5 | COC(=O)N1CCC(c2ccc(CC3C(C)(C)OC(N[C@@H](C)c4ccccc4F)=NS3(=O)=O)cn2)CC1 (stereo partly drawn) [Example 44, 5-{2-[(S)-1-(2-fluorophenyl)-ethylamino]-6,6-dimethyl-4,4-dioxo-5,6-dihydro-4H-4lambda6-[1,4,3]oxathiazin-5-ylmethyl}-3′,4′,5′,6′-tetrahydro-2′H-[2,4′]bipyridinyl-1′-carboxylic acid methyl ester]
44 | C[C@H](NC1=NS(=O)(=O)[C@H](Cc2ccc(N3CCNCC3)cc2)C(C)(C)O1)c1ccccc1F [Example 45, [(R)-6,6-Dimethyl-4,4-dioxo-5-(4-piperazin-1-yl-benzyl)-5,6-dihydro-4H-4lambda6-[1,4,3]oxathiazin-2-yl]-[(S)-1-(2-fluorophenyl)-ethyl]-amine]
52 | C[C@H](NC1=NS(=O)(=O)[C@H](Cc2ccc(C3CCN(C)CC3)cc2)C(C)(C)O1)c1ccccc1F [Example 50]
6 | C[C@H](NC1=NS(=O)(=O)[C@@H](Cc2ccc(C3CCN(C)CC3)cc2)C(C)(C)O1)c1ccccc1F [Example 51]
62 | C[C@H](NC1=NS(=O)(=O)[C@H](Cc2ccc(NCCN(C)C)cc2)C(C)(C)O1)c1ccccc1F [Example 52, N-(4-{(R)-2-[(S)-1-(2-fluorophenyl)-ethylamino]-dimethyl-4,4-dioxo-5,6-dihydro-4H-4lambda6-[1,4,3]oxathiazin-5-ylmethyl}-phenyl)-N′,N′,- dimethyl-ethane-1,2-diamine]
9 | C[C@H](NC1=NS(=O)(=O)[C@@H](Cc2ccc(C3CCN(C4COC4)CC3)cc2)C(C)(C)O1)c1ccccc1F [Example 53, {(S)-6,6-Dimethyl-5-[4-(1-oxetan-3-yl-piperidin-4-yl)-benzyl]-4,4-dioxo-5,6-dihydro-4H-4lambda6-[1,4,3]oxathiazin-2-yl}-[(S)-1-(2-fluorophenyl)-ethyl]-amine]
8 | C[C@H](NC1=NS(=O)(=O)[C@@H](Cc2ccc(OCC(C)(C)N)cc2)C(C)(C)O1)c1ccccc1F [Example 55, {(S)-5-[4-(2-Amino-2-methyl-propoxy)-benzyl]-6,6-dimethyl-4,4-dioxo-5,6-dihydro-4H-4lambda6-[1,4,3]oxathiazin-2-yl}-[(S)-1-(2-fluorophenyl)-ethyl]-amine]
24 | C[C@H](NC1=NS(=O)(=O)C(Cc2ccc(C3CCN(C4COC4)CC3)nc2)C(C)(C)O1)c1ccccc1F (stereo partly drawn) [Example 56, [6,6-Dimethyl-5-(1′-oxetan-3-yl-1′,2′,3′,4′,5′,6′-hexahydro-[2,4′]bipyridinyl-5-ylmethyl)-4,4-dioxo-5,6-dihydro-4H-4lambda6-[1,4,3]oxathiazin-2-yl]-[(S)-1-(2-fluorophenyl)-ethyl]-amine]
